Assay: excess molar enthalpy (molar enthalpy of mixing); xn = mol fraction of the nth substance listed
Conditions: 773.15 K, 101 kPa, Liquid, Calvet calorimetry

[In] [indium] + [Sn]
Conditions	excess molar enthalpy [kcal/mol]
x2 = 0.1	-0.0437
x2 = 0.1966	-0.0894
x2 = 0.2981	-0.104
x2 = 0.4041	-0.0915
x2 = 0.5002	-0.0791
x2 = 0.5005	-0.0755
x2 = 0.5949	-0.0719
x2 = 0.6901	-0.0576
x2 = 0.7891	-0.0394
x2 = 0.8975	-0.0208
